Experimental data from patent US20250304965A1, “DOUBLE-STRANDED RNA MOLECULE AND PHARMACEUTICAL USE THEREOF” (MACAU UNIVERSITY OF SCIENCE AND TECHNOLOGY, priority 2022, published 2025).
Where two headings read alike, the source gives them in different places. [Ψ] = pseudouridine

B1: GL10 mimic: chemically modified GL2 double-stranded RNA (5-methyluridine and pseudouridine); antisense SEQ ID NO: 20, sense SEQ ID NO: 24, length 41 (nucleic acid)
antisense: AUAAGGAAUCUGUAGAAGTUCGAUUCUUCUUGGGCUUACCA
sense: UGGUAAGCCCAAGAAGAAUCGAACUUCUACAGAUUCCUUAU
modifications: antisense: RNA, [Ψ] at 20, backbone not given here; sense: RNA, backbone not given here; further chemistry not fully specified
B2: GL2 mimic: double-stranded RNA from Ganoderma lucidum tRNA-Ile(GAU); antisense SEQ ID NO: 3, sense SEQ ID NO: 12, length 41 (nucleic acid)
antisense: AUAAGGAAUCUGUAGAAGUUCGAUUCUUCUUGGGCUUACCA
sense: UGGUAAGCCCAAGAAGAAUCGAACUUCUACAGAUUCCUUAU
modifications: RNA, backbone not given here
B3: GL1 mimic: double-stranded RNA from Ganoderma lucidum tRNA-Ile(GAU); antisense SEQ ID NO: 2, sense SEQ ID NO: 11, length 33 (nucleic acid)
antisense: AAGCCUAUAAUUUAAAGGUAGAAUAAUUUCUUG
sense: CAAGAAAUUAUUCUACCUUUAAAUUAUAGGCUU
modifications: RNA, backbone not given here

Experiments:
Type in all cases: cell-based, human
A2780 cells = assay: MTT cytotoxicity analysis, ovarian cancer cells A2780; settings: for inhibition of growth and proliferation (cell viability vs control and RNAiMAX group): ovarian cancer cells A2780, 6.25-200 nM, 48 hours, FIG. 6-8; for IC50: A2780 ovarian cancer cells, 48 hours of treatment, Lipofectamine RNAiMAX transfection reagent, MTT, read-out: Median inhibitory concentration IC50
Description: (§1) A2780 and HCT-8 cell lines were cultured in RPMI 1640 medium containing 10% FBS and 1% penicillin/streptomycin. HepG2 cell lines were cultured in MEM medium containing 10% FBS and 1% penicillin/streptomycin. All the above cell lines were cultured at 37° C. in a humidified atmosphere containing 5% CO2.
(§2) In the cytotoxicity analysis, exponentially growing cells of each cancer cell line were inoculated at a density of 5000 cells per well in a 100 μL medium in a 96-well microplate and allowed to adhere for 24 hours prior to treatment. Then obtained RNA molecules at successive concentrations with a nucleic acid transfer vector, namely, Lipofectamine™ RNAiMAX transfection reagent (Thermo Fisher Scientific, United States), were added to the cells. After 48 hours of treatment, MTT solution (50 μL per well, 1 mg/mL solution) was added to each well and incubated at 37° C. for 4 hours. Then 200 μL of dimethyl sulfoxide (DMSO) was added, and an optical density of the resulting solution was measured via calorimetry by using SpectraMax 190 microplate reader (Molecular Devices, United States) at 570 nm. Dose-response curves were obtained and IC50 values were calculated via GraphPad Prism 5 (GraphPad, United States). Each experiment was performed three times.
(§3) Before addition of the MTT solution, the inventor determined the cytotoxic effects and IC 50 of the GL1, GL2, GL4, and GL6 mimics at different concentrations of 6.25 nM, 12.5 nM, 25 nM, 50 nM, 100 nM, and 200 nM on A2780, HCT-8 and HepG2 cells. After 48 hours of the treatment of the double-stranded RNA molecules, the cell viability of these cells was compared with that of the control group and the RNAiMAX group. Paclitaxel was used in a comparative example. […] The results were compared with those of the control group and the RNAiMAX group using the transfection agent. For IC50, refer to Table 4. Paclitaxel was used in a comparative example.
(§4) Then the inventor specifically determined the cytotoxic effects and IC50 of the RNA molecules GL2 mimic and different chemically modified GL10, GL11 and GL12 mimics at different concentrations of 6.25 nM, 12.5 nM, 25 nM, 50 nM, 100 nM, and 200 nM on A2780, HCT-8 and HepG2 cells. […] For IC50, refer to Table 5. Paclitaxel was used in a comparative example.

HepG2 cells = assay: MTT cytotoxicity analysis, liver cancer cells HepG2; settings: for IC50: HepG2 liver cancer cells, 48 hours of treatment, Lipofectamine RNAiMAX transfection reagent, MTT, read-out: Median inhibitory concentration IC50; for inhibition of growth and proliferation (cell viability vs control and RNAiMAX group): liver cancer cells HepG2, 6.25-200 nM, 48 hours, FIG. 6-8
Description: as §1, §2, §3, §4

HCT-8 cells = assay: MTT cytotoxicity analysis, colorectal cancer cells HCT-8; settings: for IC50: HCT-8 colorectal cancer cells, 48 hours of treatment, Lipofectamine RNAiMAX transfection reagent, MTT, read-out: Median inhibitory concentration IC50; for inhibition of growth and proliferation (cell viability vs control and RNAiMAX group): colon cancer cells HCT-8, 6.25-200 nM, 48 hours, FIG. 6-8
Description: as §1, §2, §3, §4

| Molecule | inhibition of growth and proliferation (cell viability vs control and RNAiMAX group) (A2780 cells) | IC50 (HepG2 cells) | inhibition of growth and proliferation (cell viability vs control and RNAiMAX group) (HepG2 cells) | IC50 (HCT-8 cells) | inhibition of growth and proliferation (cell viability vs control and RNAiMAX group) (HCT-8 cells) | IC50 (A2780 cells; Homo sapiens) | IC50 (HepG2 cells; Homo sapiens) | IC50 (HCT-8 cells; Homo sapiens) | IC50 (A2780 cells) | inhibition of growth and proliferation (cell viability vs control and RNAiMAX group) (A2780 cells; listed as GL2) | inhibition of growth and proliferation (cell viability vs control and RNAiMAX group) (HepG2 cells; listed as GL2) | inhibition of growth and proliferation (cell viability vs control and RNAiMAX group) (HCT-8 cells; listed as GL2) |
| --- | --- | --- | --- | --- | --- | --- | --- | --- | --- | --- | --- | --- |
| GL6 mimic: double-stranded RNA from Ganoderma lucidum tRNA-Ile(GAU); antisense SEQ ID NO: 7, sense SEQ ID NO: 16, length 22 (antisense UCGAUUCUUCUUGGGCUUACCA; sense UGGUAAGCCCAAGAAGAAUCGA; RNA, backbone not given here) | effective in inhibiting growth and proliferation | 400 nM | effective in inhibiting growth and proliferation | 600 nM | effective in inhibiting growth and proliferation |  |  |  |  |  |  |  |
| GL5: double-stranded RNA from Ganoderma lucidum tRNA-Ile(GAU); antisense SEQ ID NO: 6, sense SEQ ID NO: 15, length 19 (antisense AAGCCUAUAAUUUAAAGGU; sense ACCUUUAAAUUAUAGGCUU; RNA, backbone not given here) | have the effect of inhibiting the growth and proliferation of cancer cells |  | have the effect of inhibiting the growth and proliferation of cancer cells |  | have the effect of inhibiting the growth and proliferation of cancer cells |  |  |  |  |  |  |  |
| GL9: double-stranded RNA from Ganoderma lucidum tRNA-Ile(GAU); antisense SEQ ID NO: 10, sense SEQ ID NO: 19, length 19 (antisense UCGAUUCUUCUUGGGCUUA; sense UAAGCCCAAGAAGAAUCGA; RNA, backbone not given here) | have the effect of inhibiting the growth and proliferation of cancer cells |  | have the effect of inhibiting the growth and proliferation of cancer cells |  | have the effect of inhibiting the growth and proliferation of cancer cells |  |  |  |  |  |  |  |
| GL7: double-stranded RNA from Ganoderma lucidum tRNA-Ile(GAU); antisense SEQ ID NO: 8, sense SEQ ID NO: 17, length 19 (antisense AUUCUUCUUGGGCUUACCA; sense UGGUAAGCCCAAGAAGAAU; RNA, backbone not given here) | have the effect of inhibiting the growth and proliferation of cancer cells |  | have the effect of inhibiting the growth and proliferation of cancer cells |  | have the effect of inhibiting the growth and proliferation of cancer cells |  |  |  |  |  |  |  |
| GL8: double-stranded RNA from Ganoderma lucidum tRNA-Ile(GAU); antisense SEQ ID NO: 9, sense SEQ ID NO: 18, length 22 (antisense AGUUCGAUUCUUCUUGGGCUUA; sense UAAGCCCAAGAAGAAUCGAACU; RNA, backbone not given here) | have the effect of inhibiting the growth and proliferation of cancer cells |  | have the effect of inhibiting the growth and proliferation of cancer cells |  | have the effect of inhibiting the growth and proliferation of cancer cells |  |  |  |  |  |  |  |
| GL4 mimic: double-stranded RNA from Ganoderma lucidum tRNA-Ile(GAU); antisense SEQ ID NO: 5, sense SEQ ID NO: 14, length 22 (antisense AAGCCUAUAAUUUAAAGGUAGA; sense UCUACCUUUAAAUUAUAGGCUU; RNA, backbone not given here) | effective in inhibiting growth and proliferation | 350 nM | effective in inhibiting growth and proliferation | 950 nM | effective in inhibiting growth and proliferation |  |  |  |  |  |  |  |
| CC(=O)O[C@H]1C(=O)[C@@]2(C)[C@H]([C@H](OC(=O)c3ccccc3)[C@]3(O)C[C@H](OC(=O)[C@H](O)[C@@H](NC(=O)c4ccccc4)c4ccccc4)C(C)=C1C3(C)C)[C@]1(OC(C)=O)CO[C@@H]1C[C@@H]2O [Taxol, Paclitaxel, reference compound] |  |  |  |  |  | 73.2 nM | 678 nM | 621 nM |  |  |  |  |
| B1 | have a dose-dependent effect on inhibiting the growth and proliferation | 144 nM | have a dose-dependent effect on inhibiting the growth and proliferation | 39.6 nM | have a dose-dependent effect on inhibiting the growth and proliferation |  |  |  | 51.9 nM |  |  |  |
| B2 | have a dose-dependent effect on inhibiting the growth and proliferation | 240 nM | have a dose-dependent effect on inhibiting the growth and proliferation | 36.3 nM | have a dose-dependent effect on inhibiting the growth and proliferation |  |  |  | 57.2 nM | effective in inhibiting growth and proliferation | effective in inhibiting growth and proliferation | effective in inhibiting growth and proliferation |
| B3 | effective in inhibiting growth and proliferation | 350 nM | effective in inhibiting growth and proliferation | 84 nM | effective in inhibiting growth and proliferation |  |  |  | 225 nM |  |  |  |
